Laboratory results taken from patent publication US12624034B2, “Non-covalent modifiers of AKT1 and uses thereof” (Terremoto Biosciences, Inc., priority 2023, dated 2026).
Where two headings read alike, the source gives them in different places.

Legend:
AKT1 WT = target: T1, AKT1 WT (Homo sapiens, UniProt P31749); experiment: Live cell AKT1 WT target engagement by NanoBRET competitive probe displacement in HEK293 cells; type: binding; details: 2 h at 37° C.
T1 construct: expressed in transfected cells; host or cells: HEK293

AKT2 = target: T2, AKT2 (Homo sapiens, UniProt P31751); experiment: Live cell AKT2 target engagement by NanoBRET competitive probe displacement in HEK293 cells; type: binding; details: 2 h at 37° C., read-out: AKT2 IC50
T2 construct: expressed in transfected cells; host or cells: HEK293

[1] = NanoBRET live cell target engagement, HEK293 cells, read-out: AKT1 WT IC50
[2] = NanoBRET live cell target engagement, HEK293 cells
[3] = NanoBRET competitive probe displacement, live HEK293 cells, read-out: AKT1 WT IC50
[4] = NanoBRET competitive probe displacement, live HEK293 cells

T1 sequence (P31749 whole entry): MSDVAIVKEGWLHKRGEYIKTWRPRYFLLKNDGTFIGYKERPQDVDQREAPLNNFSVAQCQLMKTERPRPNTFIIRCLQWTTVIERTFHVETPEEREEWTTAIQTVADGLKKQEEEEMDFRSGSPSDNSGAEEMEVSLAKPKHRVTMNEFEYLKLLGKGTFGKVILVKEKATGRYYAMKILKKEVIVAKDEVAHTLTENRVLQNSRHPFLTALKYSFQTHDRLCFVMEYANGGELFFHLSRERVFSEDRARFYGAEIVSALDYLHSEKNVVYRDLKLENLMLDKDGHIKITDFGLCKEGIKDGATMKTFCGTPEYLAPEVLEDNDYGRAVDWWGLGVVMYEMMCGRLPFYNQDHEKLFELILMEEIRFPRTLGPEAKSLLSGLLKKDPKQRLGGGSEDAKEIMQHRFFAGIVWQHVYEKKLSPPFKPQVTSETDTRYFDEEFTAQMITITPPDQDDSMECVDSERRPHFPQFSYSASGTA
T2 sequence (P31751 whole entry): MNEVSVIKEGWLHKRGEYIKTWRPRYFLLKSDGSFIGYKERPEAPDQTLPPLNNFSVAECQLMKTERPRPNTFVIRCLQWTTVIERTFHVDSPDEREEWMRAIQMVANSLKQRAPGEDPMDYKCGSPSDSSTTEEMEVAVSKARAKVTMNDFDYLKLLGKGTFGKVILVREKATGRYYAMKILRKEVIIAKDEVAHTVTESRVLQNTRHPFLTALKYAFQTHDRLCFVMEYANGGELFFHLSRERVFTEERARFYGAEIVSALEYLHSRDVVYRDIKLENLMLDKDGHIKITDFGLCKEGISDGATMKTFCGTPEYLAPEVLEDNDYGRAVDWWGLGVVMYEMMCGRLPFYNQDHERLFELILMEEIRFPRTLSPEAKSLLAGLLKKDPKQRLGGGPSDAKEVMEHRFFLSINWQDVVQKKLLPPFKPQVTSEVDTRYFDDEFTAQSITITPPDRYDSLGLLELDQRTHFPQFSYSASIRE

| IC50 (AKT1 WT; [1]) | IC50 (AKT2; [2]) | IC50 (AKT1 WT; [3]) | IC50 (AKT2; [4]) | IC50 (AKT1 WT; AKT1 WT IC50 (nM), NanoBRET live cell target engagement, HEK293 cells) | SMILES |
| --- | --- | --- | --- | --- | --- |
| 32.4 nM | 1030 nM |  |  |  | Nc1ncccc1-c1nc2ccc(-n3cccn3)nc2n1-c1ccc2c(c1)CC(F)[C@@H]2NC1CN(c2ccccn2)C1 (stereo partly shown) [Compound 208] |
| 19.5 nM | 540 nM |  |  |  | Nc1ncccc1-c1nc2ccc(-n3cccn3)nc2n1-c1ccc2c(c1)CC[C@@H]2NC(=O)c1cccnc1C(F)F [Compound 79] |
|  |  | 418 nM | 7070 nM |  | Nc1ncccc1-c1nc2ccc(-n3cccn3)nc2n1-c1ccc2c(c1)CC[C@@H]2NC1CCc2nc(C(F)F)sc21 (stereo partly shown) [Compound 600] |
| 5.59 nM | 29.4 nM |  |  |  | Nc1ncccc1-c1nc2ccc(-n3cccn3)nc2n1-c1ccc2c(c1)CC[C@@H]2NC(=O)c1ccnc(OC(F)F)c1 [Compound 202] |
|  |  | 1.83 nM | 37.8 nM |  | CN1CCN(c2ccn(-c3ccc4nc(-c5cccnc5N)n(-c5ccc6c(c5)CC[C@@H]6NC5CCN(C(=O)C6CC6)CC5)c4n3)n2)CC1 [Compound 563] |
| 95.9 nM | 2850 nM |  |  |  | Cc1ncccc1C(=O)N[C@H]1CCc2cc(-n3c(-c4cccnc4N)nc4ccc(-c5ncco5)nc43)ccc21 [Compound 229] |
| 151 nM | 2520 nM |  |  |  | Cc1cnc(C(=O)N[C@H]2CCc3cc(-n4c(-c5cccnc5N)nc5ccc(-n6cccn6)nc54)ccc32)c(C)n1 [Compound 207] |
| 45.5 nM | 2020 nM |  |  |  | Nc1ncccc1-c1nc2ccc(C#CC3CCC3)nc2n1-c1ccc2c(c1)CC[C@@H]2NC(=O)c1ccc(C(F)F)nc1 [Compound 226] |
| 7.74 nM | 82.9 nM |  |  |  | CC#Cc1cc(C(=O)N[C@H]2CCc3cc(-n4c(-c5cccnc5N)nc5ccc(-n6cccn6)nc54)ccc32)ccn1 [Compound 171, (S)—N-(5-(2-(2-aminopyridin-3-yl)-5-(1H-pyrazol-1-yl)-3H-imidazo[4,5-b]pyridin-3-yl)-2,3-dihydro-1H-inden-1-yl)-2-(prop-1-yn-1-yl)isonicotinamide] |
|  |  | 23.5 nM | 499 nM |  | Nc1ncccc1-c1nc2ccc(-n3cccn3)nc2n1-c1ccc2c(c1)CC[C@@H]2NC1CCN(C(=O)C2CC2)CC1F (stereo partly shown) [Compound 444] |
|  |  | 77.4 nM | 808 nM |  | CC(C)(O)c1ccn(-c2ccc3nc(-c4cccnc4N)n(-c4ccc5c(c4)CC[C@@H]5NC4CCN(C(=O)C5CC5)CC4)c3n2)n1 [Compound 569] |
|  |  | 38.9 nM | 507 nM |  | Nc1ncccc1-c1nc2ccc(-n3ccc(OC(F)F)n3)nc2n1-c1ccc2c(c1)CC[C@@H]2NC(=O)c1cnc(C(F)F)s1 [Compound 534] |
| 8.65 nM | 28.4 nM |  |  |  | CCc1ccc(C(=O)N[C@H]2CCc3cc(-n4c(-c5cccnc5N)nc5ccc(-n6cccn6)nc54)ccc32)cn1 [Compound 80] |
|  | 39.4 nM |  |  | 6.86 nM | Cc1cc(C(=O)N[C@H]2CCc3cc(-n4c(-c5cccnc5N)nc5ccc(-n6cccn6)nc54)ccc32)cc(C)n1 [Compound 76] |
|  |  | 10.4 nM | 196 nM |  | COc1cc2c(cn1)CCC2N[C@H]1CCc2cc(-n3c(-c4cccnc4N)nc4ccc(-n5cccn5)nc43)ccc21 (stereo partly shown) [Compound 511] |
| 9.53 nM | 52.7 nM |  |  |  | CN1Cc2cc(C(=O)N[C@H]3CCc4cc(-n5c(-c6cccnc6N)nc6ccc(-n7cccn7)nc65)ccc43)cnc2C1 [Compound 112] |
| 535 nM | > 10000 nM |  |  |  | Cc1nccnc1C(=O)N[C@H]1CCc2cc(-n3c(-c4cccnc4N)nc4ccc(-c5ncco5)nc43)ccc21 [Compound 270] |
| 6.98 nM | 9.41 nM |  |  |  | Nc1ncccc1-c1nc2ccc(-n3cccn3)nc2n1-c1ccc2c(c1)CC[C@@H]2NC(=O)c1ccc(N2CCOCC2)nc1 [Compound 95] |
| 2.9 nM | 22.2 nM |  |  |  | COc1cc(C(=O)N[C@H]2CCc3cc(-n4c(-c5cccnc5N)nc5ccc(-n6cccn6)nc54)ccc32)cnn1 [Compound 377] |
| > 1000 nM | > 10000 nM |  |  |  | Cc1ccc(C(=O)N[C@H]2CC(F)(F)c3cc(-n4c(-c5cccnc5N)nc5ccc(-n6cccn6)nc54)ccc32)cn1 [Compound 299] |
| 8.16 nM | 21.4 nM |  |  |  | COc1cc(F)cc(C(=O)N[C@H]2CCc3cc(-n4c(-c5cccnc5N)nc5ccc(-n6cccn6)nc54)ccc32)c1 [Compound 334] |
| > 1000 nM | > 10000 nM |  |  |  | Nc1ncccc1-c1nc2ccc(-n3cccn3)nc2n1-c1ccc2c(c1)CC[C@@H]2NC(=O)CC1CCC(=O)N1 (stereo partly drawn) [Compound 47, N—((S)-5-(2-(2-aminopyridin-3-yl)-5-(1H-pyrazol-1-yl)-3H-imidazo[4,5-b]pyridin-3-yl)-2,3-dihydro-1H-inden-1-yl)-2-(5-oxopyrrolidin-2-yl)acetamide] |
| 13.8 nM | 60.6 nM |  |  |  | Cc1ncccc1C(=O)N[C@H]1CCc2cc(-n3c(-c4cccnc4N)nc4c(C(F)F)cc(-n5cccn5)nc43)ccc21 [Compound 213] |
|  |  | 57.7 nM | 1300 nM |  | Nc1ncccc1-c1nc2ccc(-c3ccn(C(F)F)n3)nc2n1-c1ccc2c(c1)CC[C@@H]2NC1CCN(C(=O)C2CC2)CC1 [Compound 434] |
| 221 nM | > 10000 nM |  |  |  | Cc1coc(-c2ccc3nc(-c4cccnc4N)n(-c4ccc5c(c4)CC[C@@H]5NC(=O)c4nccnc4C)c3n2)n1 [Compound 244] |

| IC50 (AKT1 WT; [1]) | IC50 (AKT2; [2]) | IC50 (AKT1 WT; [3]) | IC50 (AKT2; [4]) | IC50 (AKT1 WT; AKT1 WT IC50 (nM), NanoBRET live cell target engagement, HEK293 cells) | SMILES |
| --- | --- | --- | --- | --- | --- |
| 9.54 nM | 163 nM |  |  |  | Nc1ncccc1-c1nc2ccc(-n3cccn3)nc2n1-c1ccc2c(c1)CC[C@@H]2NC(=O)c1ccc(F)nc1 [Compound 264] |
| 50.3 nM | 1580 nM |  |  |  | COCc1ncccc1C(=O)N[C@H]1CCc2cc(-n3c(-c4cccnc4N)nc4ccc(-n5cccn5)nc43)ccc21 [Compound 149] |
| 76.2 nM | 1340 nM |  |  |  | Nc1ncccc1-c1nc2ccc(-n3cccn3)nc2n1-c1ccc2c(c1)CC[C@@H]2NC(=O)Nc1ccccc1 [Compound 133] |
| 5.19 nM | 73.8 nM |  |  |  | CNC(=O)c1ccc(C(=O)N[C@H]2CCc3cc(-n4c(-c5cccnc5N)nc5ccc(-n6cccn6)nc54)ccc32)cc1 [Compound 256] |
|  |  | 15 nM | 520 nM |  | Nc1ncccc1-c1nc2ccc(-n3ncc(OC(F)F)n3)nc2n1-c1ccc2c(c1)CC[C@@H]2NC(=O)c1cnc(C(F)F)s1 [Compound 595] |
| 39.3 nM | 722 nM |  |  |  | Nc1ncccc1-c1nc2ccc(-n3cccn3)nc2n1-c1ccc2c(c1)CC[C@@H]2n1cc(Cc2ccccc2)nn1 [Compound 156] |
| 37.7 nM | 1010 nM |  |  |  | CN(C)[C@H]1CCc2cc(-n3c(-c4cccnc4N)nc4ccc(-n5cccn5)nc43)ccc21 [Compound 340] |
|  |  | 58.9 nM | 1730 nM |  | Cn1nc(C(=O)N[C@H]2CCc3cc(-n4c(-c5cccnc5N)nc5ccc(-n6cccn6)nc54)ccc32)cc1F [Compound 428] |
| 19.8 nM | 284 nM |  |  |  | Nc1ncccc1-c1nc2ccc(N3CCOCC3)nc2n1-c1ccc2c(c1)CC[C@@H]2NC(=O)c1ccc(C(F)F)nc1 [Compound 136] |
|  |  | 27.6 nM | 723 nM |  | Cn1ccc(N2CCC(N[C@H]3CCc4cc(-n5c(-c6cccnc6N)nc6ccc(-n7ccc(C8CCOCC8)n7)nc65)ccc43)CC2)n1 [Compound 549] |
|  |  | 31.9 nM | 1330 nM |  | Nc1ncccc1-c1nc2ccc(-n3cccn3)nc2n1-c1ccc2c(c1)CC[C@@H]2NC1CCN(C(=O)C2CC2)CC1F (stereo partly shown) [Compound 446] |
|  |  | 20.5 nM | 695 nM |  | Nc1ncccc1-c1nc2ccc(-n3cccn3)nc2n1-c1ccc2c(c1)CC[C@@H]2NC1CCCc2ccncc21 (stereo partly shown) [Compound 501] |
|  |  | 25.2 nM | 962 nM |  | CN(C)C(=O)c1ccn(-c2ccc3nc(-c4cccnc4N)n(-c4ccc5c(c4)CC[C@@H]5NC4CCN(C(=O)C5CC5)CC4)c3n2)n1 [Compound 591] |
| 6.73 nM | 21.3 nM |  |  |  | Cc1ncccc1C(=O)N[C@@H]1c2ccc(-n3c(-c4cccnc4N)nc4ccc(-n5cccn5)nc43)cc2CC1(F)F [Compound 187] |
| 643 nM | 4400 nM |  |  |  | CN(C)Cc1cn([C@H]2CCc3cc(-n4c(-c5cccnc5N)nc5ccc(-n6cccn6)nc54)ccc32)nn1 [Compound 218] |
| 13.6 nM | 68.2 nM |  |  |  | Cn1c(=O)[nH]c2ccc(C(=O)N[C@H]3CCc4cc(-n5c(-c6cccnc6N)nc6ccc(-n7cccn7)nc65)ccc43)cc21 [Compound 230] |
|  |  | 93.4 nM | 1130 nM |  | Nc1ncccc1-c1nc2ccc(-n3cccn3)nc2n1-c1ccc2c(c1)CC[C@@H]2N[C@@H]1CCN(c2ccccc2)C1 [Compound 469] |
|  |  | 7.04 nM | 344 nM |  | COC1CN(c2ccn(-c3ccc4nc(-c5cccnc5N)n(-c5ccc6c(c5)CC(F)[C@@H]6NC5CCN(C(=O)C6CC6)CC5)c4n3)n2)C1 (stereo partly shown) [Compound 553] |
| 69.6 nM | 1380 nM |  |  |  | Nc1ncccc1-c1nc2ccc(-n3cccn3)nc2n1-c1ccc2c(c1)CC[C@@H]2NC(=O)c1ccnn1C(F)F [Compound 170] |
| 65.5 nM | 2370 nM |  |  |  | Nc1ncccc1-c1nc2ccc(-c3ncco3)nc2n1-c1ccc2c(c1)CC[C@@H]2n1ccnn1 [Compound 246] |
| 7.52 nM | 68.9 nM |  |  |  | Cc1cc(C(=O)N[C@H]2CCc3cc(-n4c(-c5cccnc5N)nc5ccc(-n6cccn6)nc54)ccc32)sn1 [Compound 375] |
|  |  | 50.9 nM | 997 nM |  | COc1cnn(-c2ccc3nc(-c4cccnc4N)n(-c4ccc5c(c4)CC[C@@H]5NC4CCN(C(=O)C5CC5)CC4)c3n2)c1 [Compound 485] |
| 3.32 nM | 8.47 nM |  |  |  | Cc1ccc(C(=O)N[C@H]2CCc3cc(-n4c(-c5cccnc5N)nc5ccc(-c6nc(C)cs6)nc54)ccc32)cn1 [Compound 300] |
| 721 nM | 532 nM |  |  |  | Cc1cc(C(=O)N[C@H]2CCc3cc(-n4c(-c5cccnc5N)nc5ccc(-n6cccn6)nc54)ccc32)nn1C [Compound 126] |
| 56.2 nM | 660 nM |  |  |  | Nc1ncccc1-c1nc2ccc(-n3cccn3)nc2n1-c1ccc2c(c1)CC[C@@H]2NC(=O)c1cnc(O)c(F)c1 [Compound 296] |
